Test results: patent publication US20110306606A1, “NOVEL 2,6-SUBSTITUTED-3-NITROPYRIDINE DERIVATIVE, METHOD FOR PREPARING SAME, AND PHARMACEUTICAL COMPOSITION INCLUDING SAME” (priority 2008, published 2011)

system: Osteoblasts (Calvarial cells); assay: Cytotoxicity test (MTT); conditions: 1 μM compound, 72 hours, in comparison with vehicle control
Procedure: For the preparation of osteoblasts (Calvarial cells), the calvaria were aseptically dissected from 1 to 2-day-old neonatal ICR mice and subjected to continuous reaction with a 0.2% collagenase solution to separate osteoblasts. The cell-suspended supernatant was centrifuged to recover osteoblasts which were grown to full confluence in an α-MEM supplemented with 10% FBS and then diluted to a desired cell density for use in the experiment.
Cytotoxicity of the compounds of the present invention was evaluated by carrying out the experiment described below.
The vehicle control group was established to contain 0.2% DMSO. 100 μL/well of the diluted drugs were dispensed into 96-well plates to which osteoblasts (calvarial cells) prepared in Experimental Example 1 were then added at a density of 1.0×10^4 cells/100 μL/well. Here, the final compound concentration in the cell culture was 1 μM, and the vehicle control group contained 0.1% DMSO. The cells were cultured in a 5% CO2 inhibitor at 37° for 72 hours. 25 μL of 3-(4,5-dimethyl-2-thiazolyl)-2,5-diphenyl-2H-tetrazolium bromide (MTT) dissolved in PBS (2 mg/mL) was added to each cell culture 4 hours before the end of culture. After completion of the reaction, the plates were centrifuged, the media were discarded, and 100 μL of formazan was added and dissolved in dimethyl sulfoxide (DMSO). Finally, the absorbance of the developed plates was measured at 540 nm. The cell viability was expressed as % concentration in comparison with the vehicle control group.

SMILES	Cell viability (%) Calvarial cell
CN1CCN(c2ccc([N+](=O)[O-])c(Nc3ccc(N4CCOCC4)c(F)c3)n2)CC1 [Compound 200, 2-[(3-fluoro-4-morpholino)phenylamino]-6-(4-methylpiperazin-1-yl)-3-nitropyridine]	107%
CC(C)Nc1ccc([N+](=O)[O-])c(Nc2ccc(N3CCSCC3)c(F)c2)n1 [Compound 204, 2-[(3-fluoro-4-thiomorpholino)phenylamino]-6-(isopropylamino)-3-nitropyridine]	102%
CC1=NCCN1c1ccc([N+](=O)[O-])c(Nc2ccc(N3CCSCC3)c(F)c2)n1 [Compound 207, 2-[(3-fluoro-4-thiomorpholino)phenylamino]-6-[(2-methyl-4,5-dihydro)imidazol-1-yl]-3-nitropyridine]	102%
CC(C)c1nccn1-c1ccc([N+](=O)[O-])c(Nc2ccc(N3CCSCC3)c(F)c2)n1 [Compound 208, 2-[(3-fluoro-4-thiomorpholino)phenylamino]-6-[(2-isopropyl)imidazol-1-yl]-3-nitropyridine]	101%
CC(C)(C)Nc1ccc([N+](=O)[O-])c(Nc2ccc(N3CCSCC3)c(F)c2)n1 [Compound 211, 2-[(3-fluoro-4-thiomorpholino)phenylamino]-6-(t-butylamino)-3-nitropyridine]	110%
O=[N+]([O-])c1ccc(N2CCC(O)CC2)nc1Nc1ccc(N2CCNCC2)c(F)c1 [Compound 218, 2-[(3-fluoro-4-piperazino)phenylamino]-6-(4-hydroxypiperidino)-3-nitropyridine]	96%
CC(C)c1nccn1-c1ccc([N+](=O)[O-])c(Nc2ccc(N3CCNCC3)c(F)c2)n1 [Compound 219, 2-[(3-fluoro-4-piperazino)phenylamino]-6-[(2-isopropyl)imidazol-1-yl]-3-nitropyridine]	89%
CC(C)(C)Nc1ccc([N+](=O)[O-])c(Nc2ccc(N3CCNCC3)c(F)c2)n1 [Compound 222, 2-[(3-fluoro-4-piperazino)phenylamino]-6-(t-butylamino)-3-nitropyridine]	95%
CC1=NCCN1c1ccc([N+](=O)[O-])c(Nc2ccc(N3CCC(O)CC3)c(F)c2)n1 [Compound 240, 2-{[3-fluoro-4-(4-hydroxypiperidino)]phenylamino}-6-[(2-methyl-4,5-dihydro)imidazol-1-yl]-3-nitropyridine]	97%
CC(C)(C)Nc1ccc([N+](=O)[O-])c(Nc2ccc(N3CCC(O)CC3)c(F)c2)n1 [Compound 243, 2-{[3-fluoro-4-(4-hydroxypiperidino)]phenylamino}-6-(t-butylamino)-3-nitropyridine]	97%
O=[N+]([O-])c1ccc(N2CCNCC2)nc1Nc1ccc(N2CCC(O)CC2)c(F)c1 [Compound 245, 2-{[3-fluoro-4-(4-hydroxypiperidino)]phenylamino}-6-(piperazin-1-yl)-3-nitropyridine]	101%
O=[N+]([O-])c1ccc(N2CCOCC2)nc1Nc1ccc(N2CCC(O)CC2)c(F)c1 [Compound 247, 2-{[3-fluoro-4-(4-hydroxypiperidino)]phenylamino}-6-morpholino-3-nitropyridine]	94%
CNc1ccc([N+](=O)[O-])c(Nc2ccc(N3CCC(N)CC3)c(F)c2)n1 [Compound 248, 2-{[3-fluoro-4-(4-aminopiperidino)]phenylamino}-6-(methylamino)-3-nitropyridine]	95%
CC(C)Nc1ccc([N+](=O)[O-])c(Nc2ccc(N3CCC(N)CC3)c(F)c2)n1 [Compound 249, 2-{[3-fluoro-4-(4-aminopiperidino)]phenylamino}-6-(isopropylamino)-3-nitropyridine]	101%
CC(C)CNc1ccc([N+](=O)[O-])c(Nc2ccc(N3CCC(N)CC3)c(F)c2)n1 [Compound 250, 2-{[3-fluoro-4-(4-aminopiperidino)]phenylamino}-6-(isobutylamino)-3-nitropyridine]	85%
NC1CCN(c2ccc(Nc3nc(N4CCC(O)CC4)ccc3[N+](=O)[O-])cc2F)CC1 [Compound 251, 2-{[3-fluoro-4-(4-aminopiperidino)]phenylamino}-6-(4-hydroxypiperidino)-3-nitropyridine]	97%
CN1CCN(c2ccc([N+](=O)[O-])c(Nc3ccc(N4CCC(N)CC4)c(F)c3)n2)CC1 [Compound 254, 2-{[3-fluoro-4-(4-aminopiperidino)]phenylamino}-6-(4-methylpiperazin-1-yl)-3-nitropyridine]	101%
NC1CCN(c2ccc(Nc3nc(N4CCOCC4)ccc3[N+](=O)[O-])cc2F)CC1 [Compound 255, 2-{[3-fluoro-4-(4-aminopiperidino)]phenylamino}-6-morpholino-3-nitropyridine]	100%
NC1CCN(c2ccc([N+](=O)[O-])c(Nc3ccc(N4CCC(N)CC4)c(F)c3)n2)CC1 [Compound 256]	104%

SMILES	Cell viability (%) Calvarial cell
NC1CCN(c2ccc(Nc3nc(NCCCN4CCOCC4)ccc3[N+](=O)[O-])cc2F)CC1 [Compound 260, 2-{[3-fluoro-4-(4-aminopiperidino)]phenylamino}-6-[(3-morpholin-1-yl)propylamino]-3-nitropyridine]	107%
CNc1ccc([N+](=O)[O-])c(Nc2ccc(N3CCCCC3C)c(F)c2)n1 (centres unmarked) [Compound 261, 2-{[3-fluoro-4-(2-methylpiperidino)]phenylamino}-6-(methylamino)-3-nitropyridine]	114%
CC(C)Nc1ccc([N+](=O)[O-])c(Nc2ccc(N3CCCCC3C)c(F)c2)n1 (centres unmarked) [Compound 262, 2-{[3-fluoro-4-(2-methylpiperidino)]phenylamino}-6-(isopropylamino)-3-nitropyridine]	109%
CC(C)CNc1ccc([N+](=O)[O-])c(Nc2ccc(N3CCCCC3C)c(F)c2)n1 (centres unmarked) [Compound 263, 2-{[3-fluoro-4-(2-methylpiperidino)]phenylamino}-6-(isobutylamino)-3-nitropyridine]	108%
CC1CCCCN1c1ccc(Nc2nc(NC(C)(C)C)ccc2[N+](=O)[O-])cc1F (centres unmarked) [Compound 264, 2-{[3-fluoro-4-(2-methylpiperidino)]phenylamino}-6-(t-butylamino)-3-nitropyridine]	117%
CC1CCCCN1c1ccc(Nc2nc(N3CCC(O)CC3)ccc2[N+](=O)[O-])cc1F (centres unmarked) [Compound 265, 2-{[3-fluoro-4-(2-methylpiperidino)]phenylamino}-6-(4-hydroxypiperidino)-3-nitropyridine]	104%
CC1=NCCN1c1ccc([N+](=O)[O-])c(Nc2ccc(N3CCCCC3C)c(F)c2)n1 (centres unmarked) [Compound 266]	121%
CC1CCCCN1c1ccc(Nc2nc(N3CCNCC3)ccc2[N+](=O)[O-])cc1F (centres unmarked) [Compound 267, 2-{[3-fluoro-4-(2-methylpiperidino)]phenylamino}-6-(piperazin-1-yl)-3-nitropyridine]	107%
CC1CCCCN1c1ccc(Nc2nc(N3CCN(C)CC3)ccc2[N+](=O)[O-])cc1F (centres unmarked) [Compound 268, 2-{[3-fluoro-4-(2-methylpiperidino)]phenylamino}-6-(4-methylpiperazin-1-yl)-3-nitropyridine]	104%
CC1CCCCN1c1ccc(Nc2nc(N3CCOCC3)ccc2[N+](=O)[O-])cc1F (centres unmarked) [Compound 269, 2-{[3-fluoro-4-(2-methylpiperidino)]phenylamino}-6-morpholino-3-nitropyridine]	113%
CC1CCCCN1c1ccc(Nc2nc(N3CCC(N)CC3)ccc2[N+](=O)[O-])cc1F (centres unmarked) [Compound 270, 2-{[3-fluoro-4-(2-methylpiperidino)]phenylamino}-6-(4-aminopiperidino)-3-nitropyridine]	95%
CC1CCCCN1c1ccc(Nc2nc(NCc3ccncc3)ccc2[N+](=O)[O-])cc1F (centres unmarked) [Compound 271, 2-{[3-fluoro-4-(2-methylpiperidino)]phenylamino}-6-[(4-pyridyl)methylamino]-3-nitropyridine]	107%
CC1CCCCN1c1ccc(Nc2nc(NCCCn3ccnc3)ccc2[N+](=O)[O-])cc1F (centres unmarked) [Compound 272, 2-{[3-fluoro-4-(2-methylpiperidino)]phenylamino}-6-[(3-imidazol-1-yl)propylamino]-3-nitropyridine]	98%
CC1CCCCN1c1ccc(Nc2nc(NCCN3CCOCC3)ccc2[N+](=O)[O-])cc1F (centres unmarked) [Compound 273, 2-{[3-fluoro-4-(2-methylpiperidino)]phenylamino}-6-[2-(morpholin-1-yl)ethylamino]-3-nitropyridine]	115%
CC1CCCCN1c1ccc(Nc2nc(NCCCN3CCOCC3)ccc2[N+](=O)[O-])cc1F (centres unmarked) [Compound 274, 2-{[3-fluoro-4-(2-methylpiperidino)]phenylamino}-6-[(3-morpholin-1-yl)propylamino]-3-nitropyridine]	102%
CNc1ccc([N+](=O)[O-])c(Nc2ccc(N3CCCC(CO)C3)c(F)c2)n1 (centres unmarked) [Compound 275, 2-{[3-fluoro-4-(3-hydroxymethylpiperidino)]phenylamino}-6-(methylamino)-3-nitropyridine]	121%
CC(C)Nc1ccc([N+](=O)[O-])c(Nc2ccc(N3CCCC(CO)C3)c(F)c2)n1 (centres unmarked) [Compound 276, 2-{[3-fluoro-4-(3-hydroxymethylpiperidino)]phenylamino}-6-(isopropylamino)-3-nitropyridine]	102%
CC(C)CNc1ccc([N+](=O)[O-])c(Nc2ccc(N3CCCC(CO)C3)c(F)c2)n1 (centres unmarked) [Compound 277, 2-{[3-fluoro-4-(3-hydroxymethylpiperidino)]phenylamino}-6-(isobutylamino)-3-nitropyridine]	107%
CC(C)(C)Nc1ccc([N+](=O)[O-])c(Nc2ccc(N3CCCC(CO)C3)c(F)c2)n1 (centres unmarked) [Compound 278, 2-{[3-fluoro-4-(3-hydroxymethylpiperidino)]phenylamino}-6-(t-butylamino)-3-nitropyridine]	118%
